Among the data in patent US20210230123A1, “INHIBITORS OF ALPHA-AMINO-BETA-CARBOXYMUCONIC ACID SEMIALDEHYDE DECARBOXYLASE” (TES Pharma S.r.l., priority 2016, published 2021) are IC50 values, retold here.

SMILES strings stand for the structures. pIC50: −log10 of the molar value.

The assay deals with T1, hACMSD (Homo sapiens, UniProt Q8TDX5).
T1 construct: made in house; host or cells: Pichia pastoris
T1 sequence (Q8TDX5 whole entry): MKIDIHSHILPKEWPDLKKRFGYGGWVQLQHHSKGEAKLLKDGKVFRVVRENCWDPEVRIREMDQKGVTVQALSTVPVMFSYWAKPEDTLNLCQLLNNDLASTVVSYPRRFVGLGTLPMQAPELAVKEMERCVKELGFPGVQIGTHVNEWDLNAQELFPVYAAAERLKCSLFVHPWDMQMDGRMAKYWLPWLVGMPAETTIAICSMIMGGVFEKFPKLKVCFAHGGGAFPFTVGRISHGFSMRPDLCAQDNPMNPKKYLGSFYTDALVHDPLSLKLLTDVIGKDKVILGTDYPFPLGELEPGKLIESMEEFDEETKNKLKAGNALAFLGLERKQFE
The experiment in a line: Determination of ACMSD1 inhibition (spectrophotometrical in vitro assay). It counts as biochemical. The note with it: HAA concentration of 10 μM, 25° C. The procedure: The activity of compounds as inhibitors of ACMSD1 is determined in a spectrophotometrical in vitro assay. The pre-assay mixture is incubated and a compound of Formula (I), Formula (Ia), Formula (Ib), Formula (Ic), Formula (Id), Formula (Ie), Formula (If), Formula (Ig), Formula (Ih), Formula (Ii), Formula (Ij), Formula (II), Formula (IIa), Formula (IIb), Formula (IIc), Formula (IId), Formula (IIe), Formula (IIf), Formula (IIg), Formula (IIh), Formula (IIi), Formula (IIj), Formula (IIk), and Formula (IIl), or a pharmaceutically acceptable salt thereof, and ACMSD1 solution is then added. The effect of ACMS concentration on the enzyme activity is investigated by varying 3-hydroxyanthranilic acid (30H-HA) concentration in the pre-assay mixture. Kinetic parameters are calculated from the initial velocity data using a Lineweaver-Burk plot.
The inhibition activity of ACMSD1 of compounds disclosed herein was determined by measuring the conversion of 30H-Anthranilic Acid into product (i.e., ACMS) in a spectrophotometrical in vitro assay.
The pre-assay mixture consisting of 3-hydroxyanthranilic acid (30H-HA), 3-hydroxyanthranilic acid, 3,4-diOxygenase (HAO), and a dialyzed crude extract of E. coli BL21 (DE3) cells expressing the recombinant enzyme, was incubated at 25° C. with monitoring of the increase in absorbance at 360 nm due to the formation of ACMS from 30H-HA. After the reaction was completed within 2 mins, an aliquot of ACMSD1 solution (prepared and purified from Pichia Pastoris overexpressing the recombinant enzyme) was added, and the decrease in absorbance at 360 nm was followed at 15 second intervals. The effect of ACMS concentration on the enzyme activity was investigated by varying 30H-HA concentration from 2 to 20 µM. Kinetic parameters were calculated from the initial velocity data by using the Lineweaver-Burk plot.
The rate of the decrease in absorbance caused by ACMSD1 was calculated by subtracting that of the control reaction mixture without ACMSD from that described above. One unit of ACMSD activity was indicated as the amount of enzyme that converts 1 mmol of ACMS per minute at 25° C. The absence or a reduction of ACMSD1 activity (e.g., by using ACMSD inhibitors) results in a slow ACMS-spontaneous degradation (i.e., cyclization to form quinolic acid).
The enzymatic activity was determined at a HAA concentration of 10 μM in the presence of the compounds in Table 1 below. The compounds were tested at the concentration of about […] and 10 μM and the IC50 was calculated for compounds showing inhibitory activity higher than 500.
The molecule `COc1cccc(/C=C/c2[nH]c(=O)[nH]c(=O)c2C#N)c1OCC(=O)O` [I-2, (E)-2-(2-(2-(5-cyano-2,6-dioxo-1,2,3,6-tetrahydropyrimidin-4-yl)vinyl)-6-methoxyphenoxy)acetic acid] gave a negative logarithm of the IC50 (pIC50) of 6.00 to 7.00. For `N#Cc1c(/C=C/c2cccc(OCC(=O)O)c2)[nH]c(=O)[nH]c1=O` [I-3, (E)-2-(3-(2-(5-cyano-2,6-dioxo-1,2,3,6-tetrahydropyrimidin-4-yl)vinyl)phenoxy)acetic acid], the pIC50 is 5.70 to 6.00. Molecule `N#Cc1c(/C=C/c2ccccc2-c2cc(F)c(O)c(F)c2)[nH]c(=O)[nH]c1=O` [I-4, (E)-6-(2-(3′,5′-difluoro-4′-hydroxy-[1,1′-biphenyl]-2-yl)vinyl)-2,4-dioxo-1,2,3,4-tetrahydropyrimidine-5-carbonitrile] had a negative logarithm of the IC50 (pIC50) of 6.00 to 7.00. `N#Cc1c(/C=C/c2ccccc2OCC(=O)O)[nH]c(=S)[nH]c1=O` [I-6, (E)-2-(2-(2-(5-cyano-6-oxo-2-thioxo-1,2,3,6-tetrahydropyrimidin-4-yl)vinyl)phenoxy)acetic acid] showed a negative logarithm of the IC50 (pIC50) of 6.00 to 7.00. `COc1cccc(/C=C/c2[nH]c(=S)[nH]c(=O)c2C#N)c1OC(C)(C)C(=O)O` [I-8, (E)-2-(2-(2-(5-cyano-6-oxo-2-thioxo-1,2,3,6-tetrahydropyrimidin-4-yl)vinyl)-6-methoxyphenoxy)-2-methylpropanoic acid] gave a negative-log IC50 (pIC50) of 6.00 to 7.00. Next, `COc1cccc(/C=C/c2[nH]c(=S)[nH]c(=O)c2C#N)c1OC(C)C(=O)O` (stereo not shown) [I-9, (E)-2-(2-(2-(5-cyano-6-oxo-2-thioxo-1,2,3,6-tetrahydropyrimidin-4-yl)vinyl)-6-methoxyphenoxy)propanoic acid]: 6.00 to 7.00. Consider `COc1cccc(/C=C/c2[nH]c(=S)[nH]c(=O)c2C#N)c1` [I-10, (E)-6-(3-methoxystyryl)-4-oxo-2-thioxo-1,2,3,4-tetrahydropyrimidine-5-carbonitrile], for which the negative-log IC50 (pIC50) is 6.00 to 7.00. Next, `COc1cccc(/C=C/c2nc(SC)[nH]c(=O)c2C#N)c1OCC(=O)O` [I-15, (E)-2-(2-(2-(5-cyano-2-(methylthio)-6-oxo-1,6-dihydropyrimidin-4-yl)vinyl)-6-methoxyphenoxy)acetic acid]: 6.00 to 7.00; `N#Cc1c(-c2cccc(-c3cccc(C(=O)O)c3)c2)[nH]c(=S)[nH]c1=O` [I-16, 3′-(5-cyano-6-oxo-2-thioxo-1,2,3,6-tetrahydropyrimidin-4-yl)-[1,1′-biphenyl]-3-carboxylic acid]: 6.00 to 7.00; `CCOc1cc(/C=C/c2[nH]c(=O)[nH]c(=O)c2[N+](=O)[O-])ccc1OCC(=O)O` [I-17, (E)-2-(2-ethoxy-4-(2-(5-nitro-2,6-dioxo-1,2,3,6-tetrahydropyrimidin-4-yl)vinyl)henoxy)acetic acid]: 5.70 to 6.00.
